ChEMBL document CHEMBL1201862, “PubChem BioAssay data set” (2004)
Activity calls are given as the source filed them.

Columns and labels:
CAAX prenyl protease 2 [1] = target: CAAX prenyl protease 2 (Saccharomyces cerevisiae S288c, UniProt Q03530); type: biochemical
CAAX prenyl protease 2 [2] = target: CAAX prenyl protease 2 (Homo sapiens, UniProt Q9Y256); test: human Rce1 protease inhibitors, dose response, biochemical, yeast membranes, quenched-peptide fluorescence, cherry-pick (AID 588849)
[3] = inhibitors of SNCA 5'UTR-driven reporter translation, confirmation, H4 neuroglioma cells, luminescence (AID 1988); type: functional, cell-based
HEK293 [4] = test: SAR Analysis of small molecule inhibitors of T-cell specific antigen receptor-induced NF-kB activation in a HEK-293T cell line using a luminescence assay - Set 2. [Related pubchem assays (depositor defined):AID435003, AID435012, AID489026]; type: functional, cell-based; conditions: Homo sapiens
HEK293 [5] = test: cytotoxicity in HEK293T NF-kB-Luc cells, SAR follow-up, cytotoxicity control for NF-kB activator project, cell-based, resazurin fluorescence (AID 493251); type: functional; conditions: Homo sapiens
Paired box protein Pax-8 = Paired box protein Pax-8 (Homo sapiens, UniProt Q06710); test: inhibitors of PAX8-driven TPO luciferase reporter, dose response, RMG-I cells, cherry-pick (AID 687027); type: functional, cell-based;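 note: luciferase reporter driven by Pax8 target thyroperoxidase promoter measured by SteadyGlo luminescence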
Paired box protein Pax-8, sequence (Q06710 whole entry): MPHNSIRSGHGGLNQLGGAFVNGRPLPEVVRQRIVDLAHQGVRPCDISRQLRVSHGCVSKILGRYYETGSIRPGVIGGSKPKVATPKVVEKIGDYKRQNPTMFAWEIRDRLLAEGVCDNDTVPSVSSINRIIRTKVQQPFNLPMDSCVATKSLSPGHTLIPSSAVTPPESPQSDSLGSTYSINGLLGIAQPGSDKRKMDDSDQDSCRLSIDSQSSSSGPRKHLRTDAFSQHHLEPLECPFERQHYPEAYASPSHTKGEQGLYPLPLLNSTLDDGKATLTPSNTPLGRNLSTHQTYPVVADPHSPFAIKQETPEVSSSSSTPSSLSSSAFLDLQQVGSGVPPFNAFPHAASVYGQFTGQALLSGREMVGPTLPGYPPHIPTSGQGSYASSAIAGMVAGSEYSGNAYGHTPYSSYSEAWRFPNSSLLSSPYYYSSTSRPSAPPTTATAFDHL

[6] = HepG2 cell cytotoxicity, dose response, cytotoxicity control for Shn3 inhibitor project, CellTiter-Glo, cherry-picked (AID 624134); type: functional, cell-based
[7] = inhibitors of firefly luciferase expression or activity, dose response, H4 neuroglioma cells, luminescence (AID 1990); type: functional, cell-based
Jurkat [8] = test: SAR Analysis of small molecule inhibitors of T-cell specific antigen receptor-induced NF-kB activation in a Jurkat cell line using a luminescence assay - Set 2. [Related pubchem assays (depositor defined):AID435003, AID435012, AID465]; type: functional, cell-based; conditions: Homo sapiens
[9] = control 3'UTR Renilla luciferase suppression, dose response, counter-screen for Shn3 inhibitor project, cell-based, Clone20-Shn3RL, cherry-picked (AID 624133); type: functional
[10] = Luminescence Cell-Based Dose Response HTS to Identify Inhibitors of 5'UTR Stem-Loop Driven Prion Protein mRNA Translation in H4 Neuroglioblastoma Cells. [Related pubchem assays: 1827 (Project Summary), 1813 (Primary HTS)]; type: functional
[11] = Fluorescence-based cell-based high throughput dose response assay for inhibitors of the interaction of nucleotide-binding oligomerization domain containing 2 (NOD2) and the receptor-interacting serine-threonine kinase 2 (RIPK2).; type: functional; conditions: Homo sapiens
[12] = Shn3 3'UTR reporter inhibitors, dose response, cell-based, Clone20 osteoblasts, firefly luciferase, cherry-picked (AID 624132); type: functional;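 note: firefly luciferase luminescence from reporter carrying the Shn3 3'UTR in osteoblasts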
Phospholipase D1 = Phospholipase D1 (Homo sapiens, UniProt Q13393); test: PLD1 inhibitor potency in cells, dose response (AID 602151); type: functional;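 note: cellular PLD1 assay in Calu-1 cells stimulated with PMA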
Phospholipase D1, sequence (Q13393 whole entry): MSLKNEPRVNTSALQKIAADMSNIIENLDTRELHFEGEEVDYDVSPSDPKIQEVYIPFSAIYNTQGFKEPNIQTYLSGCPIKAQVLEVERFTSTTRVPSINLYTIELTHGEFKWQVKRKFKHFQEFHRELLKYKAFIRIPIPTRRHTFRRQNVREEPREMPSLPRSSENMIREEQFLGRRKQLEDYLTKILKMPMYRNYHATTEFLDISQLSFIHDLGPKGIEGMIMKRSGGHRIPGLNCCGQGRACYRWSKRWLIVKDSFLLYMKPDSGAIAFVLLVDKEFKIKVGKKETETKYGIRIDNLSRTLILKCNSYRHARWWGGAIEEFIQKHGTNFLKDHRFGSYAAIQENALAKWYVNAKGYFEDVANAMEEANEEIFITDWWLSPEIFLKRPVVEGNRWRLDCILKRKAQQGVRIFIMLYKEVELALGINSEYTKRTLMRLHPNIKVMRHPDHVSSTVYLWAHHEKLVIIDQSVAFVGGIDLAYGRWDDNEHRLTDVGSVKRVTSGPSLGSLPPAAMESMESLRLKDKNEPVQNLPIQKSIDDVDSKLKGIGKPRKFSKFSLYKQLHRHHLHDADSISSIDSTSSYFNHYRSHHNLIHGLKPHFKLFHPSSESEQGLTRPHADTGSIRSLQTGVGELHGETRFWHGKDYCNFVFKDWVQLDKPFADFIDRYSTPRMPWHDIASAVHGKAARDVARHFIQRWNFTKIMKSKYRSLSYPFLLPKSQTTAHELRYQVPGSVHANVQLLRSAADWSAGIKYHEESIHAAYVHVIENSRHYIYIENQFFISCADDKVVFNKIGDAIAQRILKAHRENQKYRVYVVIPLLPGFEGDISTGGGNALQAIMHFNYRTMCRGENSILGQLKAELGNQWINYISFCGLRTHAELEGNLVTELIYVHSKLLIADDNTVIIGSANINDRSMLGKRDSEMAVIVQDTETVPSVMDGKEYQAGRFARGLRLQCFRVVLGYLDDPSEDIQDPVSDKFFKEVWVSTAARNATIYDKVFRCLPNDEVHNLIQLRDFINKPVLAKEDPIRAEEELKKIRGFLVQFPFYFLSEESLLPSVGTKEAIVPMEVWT

Phospholipase D2 = Phospholipase D2 (Homo sapiens, UniProt O14939); test: PLD2 inhibitor potency in cells, dose response (AID 602147); type: functional;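 note: cellular assay in HEK293 cells overexpressing GFP-tagged PLD2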
Phospholipase D2, sequence (O14939 whole entry): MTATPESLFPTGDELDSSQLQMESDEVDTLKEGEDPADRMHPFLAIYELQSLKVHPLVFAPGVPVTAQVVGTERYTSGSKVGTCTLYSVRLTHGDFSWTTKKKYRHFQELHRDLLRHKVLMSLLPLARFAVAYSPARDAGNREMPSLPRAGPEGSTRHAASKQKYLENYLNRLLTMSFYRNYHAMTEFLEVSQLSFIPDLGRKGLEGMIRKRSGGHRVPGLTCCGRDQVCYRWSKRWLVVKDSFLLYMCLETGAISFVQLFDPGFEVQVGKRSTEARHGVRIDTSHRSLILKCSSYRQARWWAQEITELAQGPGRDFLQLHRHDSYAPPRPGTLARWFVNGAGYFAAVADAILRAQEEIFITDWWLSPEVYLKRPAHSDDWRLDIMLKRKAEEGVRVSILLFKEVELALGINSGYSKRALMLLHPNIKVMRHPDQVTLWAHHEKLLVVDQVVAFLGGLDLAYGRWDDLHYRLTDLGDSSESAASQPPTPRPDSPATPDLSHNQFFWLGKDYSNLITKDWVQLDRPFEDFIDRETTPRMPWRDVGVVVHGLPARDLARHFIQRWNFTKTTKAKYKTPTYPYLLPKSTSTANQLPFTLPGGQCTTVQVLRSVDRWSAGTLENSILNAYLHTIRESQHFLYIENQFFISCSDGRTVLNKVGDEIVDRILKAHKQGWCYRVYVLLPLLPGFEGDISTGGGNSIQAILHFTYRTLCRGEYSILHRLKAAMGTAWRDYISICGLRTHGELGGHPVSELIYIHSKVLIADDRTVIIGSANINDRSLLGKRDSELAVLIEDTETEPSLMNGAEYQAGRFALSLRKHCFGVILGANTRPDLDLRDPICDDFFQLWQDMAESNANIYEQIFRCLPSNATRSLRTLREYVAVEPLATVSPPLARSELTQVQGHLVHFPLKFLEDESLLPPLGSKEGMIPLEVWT

[13] = target: T1, Heat shock factor protein 1 (Mus musculus, UniProt P38532); test: inhibition of MG132-induced HSE-luciferase signal, confirmation, cell-based, NIH3T3, luminescence, dose retest (AID 2382); type: functional;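 note: NIH3T3 fibroblasts with HSF1-driven luciferase reporter stressed by proteasome inhibitor MG132; luminescence from HSF1-driven luciferase expression after 8 hours of MG132 stress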
T1 sequence (P38532 whole entry): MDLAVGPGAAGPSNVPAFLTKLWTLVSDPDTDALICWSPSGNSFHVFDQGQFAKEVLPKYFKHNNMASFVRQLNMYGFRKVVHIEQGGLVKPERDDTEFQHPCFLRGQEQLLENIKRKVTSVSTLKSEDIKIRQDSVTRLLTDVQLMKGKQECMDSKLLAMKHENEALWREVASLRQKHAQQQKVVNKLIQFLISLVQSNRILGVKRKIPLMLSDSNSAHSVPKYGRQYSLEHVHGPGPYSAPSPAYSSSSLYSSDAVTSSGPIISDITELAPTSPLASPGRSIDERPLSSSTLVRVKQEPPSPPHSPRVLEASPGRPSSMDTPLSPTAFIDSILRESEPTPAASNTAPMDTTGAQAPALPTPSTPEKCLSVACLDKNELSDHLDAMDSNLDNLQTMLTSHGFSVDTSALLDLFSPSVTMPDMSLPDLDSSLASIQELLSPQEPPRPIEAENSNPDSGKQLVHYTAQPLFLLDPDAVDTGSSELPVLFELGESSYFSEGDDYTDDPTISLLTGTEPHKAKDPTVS

[14] = IOSE-T80 ovarian epithelial cell cytotoxicity, dose response, cytotoxicity control for PAX8 inhibitor project, plate reader, dry powder samples (AID 743045); type: functional, cell-based
[15] = Luminescence-based counterscreen assay for KLF5 inhibitors: dose response cell-based high throughput screening assay to identify cytotoxic compounds using the IEC-6 intestinal epithelial cell line. [Related pubchem assays: 1700 (Primary screen.), 1834 (Confirmation screen.), 1858 (Summary AID.), 1905 (Counterscreen.)]; type: functional
Escherichia coli = test: microbe, parasite or virus in culture
Jurkat [16] = test: antigen receptor-induced NF-kB inhibitors, dose response, Jurkat, luciferase reporter, luminescence, B- and T-cell (AID 489004); type: functional, cell-based; conditions: Homo sapiens;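 note: NF-kB luciferase reporter Jurkat cells stimulated with PMA plus ionomycin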
[17] = PAX2 cell-based inhibition, dose response, selectivity assay for PAX8 inhibitor project, plate reader, dry powder samples (AID 743048); type: functional;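 note: HEK293 cells carrying a WT1 promoter luciferase reporter driven by expressed Pax2; potency is for inhibition of Pax2 driven reporter signal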
[18] = cytotoxicity dependent on PAX8, dose response, cell-based, plate reader, dry powder (AID 743049); type: functional
[19] = PAX5 activity inhibitors, dose response, selectivity assay for PAX8 inhibitor project, cell-based, plate reader, dry powder samples (AID 743047); type: functional;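 note: HEK293 cells carrying a Pax5 driven CD19 promoter luciferase reporter; potency of inhibitors that lower reporter luminescence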
[20] = reduction of Shn3 3'UTR firefly luciferase signal, dose response, Schnurri-3 inhibitor project, cell-based, Clone20 osteoblasts, cherry-pick, set 2 (AID 720490); type: functional;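 note: actives lower the luminescence signal as inhibitors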
[21] = IGROV1 ovarian cancer cell cytotoxicity, dose response, PAX8 inhibitor project, plate reader, dry powder samples (AID 743043); type: functional, cell-based; conditions: IGROV-1
[22] = cytotoxicity in HEK-293T NF-kB-Luc cells, dose response, cytotoxicity control for B/T-cell NF-kB inhibitor project, cell-based, uHTS hits (AID 489019); type: functional;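 note: IC50 reflects cytotoxicity as loss of cell viability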
[23] = cytotoxicity in COV362 ovarian cancer cells, dose response, cytotoxicity control for PAX8 inhibitor project, cell-based, plate reader, dry powder, SA12 (AID 743144); type: functional
[24] = Luminescence Cell-Based Dose Retest to Confirm Inhibitors of Cancer Stem Cells. [Related pubchem assays (depositor defined):AID2717, AID2721]; type: functional; conditions: Homo sapiens
BJ [25] = test: cytotoxicity toward Ras-transformed BJeLR fibroblasts, dose response, cell-based, alamar blue fluorescence, cherrypicked samples (AID 2631); type: functional; conditions: Homo sapiens;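 note: confirmatory dose-response assay in RAS-dependent BJ fibroblasts engineered with TERT, LT and ST, with cytotoxicity read by fluorescence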
[26] = cytotoxicity in HEK-293T cells, dose response, cytotoxicity control for TCR NF-kB inhibitor project, luminescence, T-cell screen hits (AID 489026); type: functional, cell-based;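 note: cells exposed to compound about 14 hours before the viability readout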
BJ [27] = test: cells; type: functional, cell-based; conditions: Homo sapiens
BJ [28] = test: cytotoxicity toward BJ-TERT-LT-ST fibroblasts, dose response, cell-based, RAS-independent, luminescence (AID 1935); type: functional; conditions: Homo sapiens;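 note: BJ fibroblasts immortalized with TERT plus LT and ST oncogenes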
[29] = cytotoxicity toward DRD oncogenic fibroblasts, dose response, cell-based, non-viral oncogenic, luminescence (AID 1934); type: functional; conditions: Homo sapiens
BJ [30] = test: cytotoxicity toward BJ-TERT fibroblasts, dose response, cell-based, RAS-independent, luminescence (AID 1933); type: functional; conditions: Homo sapiens
HeLa = test: HeLa cell cytotoxicity, dose response, cytotoxicity control, 48 h, plate reader, cherry-picks (AID 504942); type: functional, cell-based; conditions: Homo sapiens
[31] = target: Acyl-homoserine lactone acylase PvdQ (Pseudomonas aeruginosa (strain LESB58), UniProt Q9I194); test: P. aeruginosa PvdQ acylase inhibitors, dose response, biochemical, fluorescence, plate reader and imaging, cherry-picks (AID 493231)
Acyl-homoserine lactone acylase PvdQ, sequence (Q9I194 24-193 limits assumed): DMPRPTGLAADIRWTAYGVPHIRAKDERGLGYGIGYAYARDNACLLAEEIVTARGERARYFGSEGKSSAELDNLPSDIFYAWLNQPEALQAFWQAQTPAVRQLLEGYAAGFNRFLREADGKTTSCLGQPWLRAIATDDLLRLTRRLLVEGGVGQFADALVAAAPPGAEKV
Acyl-homoserine lactone acylase PvdQ, sequence (Q9I194 217-762 limits assumed): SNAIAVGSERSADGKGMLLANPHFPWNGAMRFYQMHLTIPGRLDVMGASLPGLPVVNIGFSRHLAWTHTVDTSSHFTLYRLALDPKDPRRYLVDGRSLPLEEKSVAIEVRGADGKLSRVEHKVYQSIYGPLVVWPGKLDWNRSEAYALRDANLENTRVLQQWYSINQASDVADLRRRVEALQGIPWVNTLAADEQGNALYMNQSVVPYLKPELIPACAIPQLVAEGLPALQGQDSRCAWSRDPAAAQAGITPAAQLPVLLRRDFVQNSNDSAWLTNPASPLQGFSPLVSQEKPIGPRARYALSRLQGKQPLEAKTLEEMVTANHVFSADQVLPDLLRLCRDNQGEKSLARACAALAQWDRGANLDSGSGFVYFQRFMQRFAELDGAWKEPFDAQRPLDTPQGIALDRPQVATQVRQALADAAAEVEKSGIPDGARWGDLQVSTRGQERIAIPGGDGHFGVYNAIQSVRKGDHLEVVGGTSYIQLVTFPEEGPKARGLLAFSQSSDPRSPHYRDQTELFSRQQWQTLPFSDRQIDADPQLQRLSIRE

CAAX prenyl protease 2 (Homo sapiens, UniProt Q9Y256), sequence (Q9Y256 whole entry): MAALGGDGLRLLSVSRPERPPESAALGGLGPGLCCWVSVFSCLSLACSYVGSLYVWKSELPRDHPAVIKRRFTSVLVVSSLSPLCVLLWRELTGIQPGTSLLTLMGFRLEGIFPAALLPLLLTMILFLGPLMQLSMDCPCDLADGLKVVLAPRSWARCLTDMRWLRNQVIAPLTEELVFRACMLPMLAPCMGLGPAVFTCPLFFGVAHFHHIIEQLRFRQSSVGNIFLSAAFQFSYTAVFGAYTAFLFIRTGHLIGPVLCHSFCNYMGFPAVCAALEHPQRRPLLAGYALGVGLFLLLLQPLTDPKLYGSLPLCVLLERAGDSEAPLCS
CAAX prenyl protease 2 (Saccharomyces cerevisiae S288c, UniProt Q03530), sequence (Q03530 whole entry): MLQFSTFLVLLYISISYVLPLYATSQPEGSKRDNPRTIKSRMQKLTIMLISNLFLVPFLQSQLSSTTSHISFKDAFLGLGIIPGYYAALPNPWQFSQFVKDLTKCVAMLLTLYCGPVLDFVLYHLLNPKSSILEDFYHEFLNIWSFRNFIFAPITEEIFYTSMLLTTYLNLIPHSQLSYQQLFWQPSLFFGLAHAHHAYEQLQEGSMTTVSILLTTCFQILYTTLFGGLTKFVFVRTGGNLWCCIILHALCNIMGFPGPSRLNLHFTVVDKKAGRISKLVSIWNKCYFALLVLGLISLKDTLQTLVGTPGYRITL

O=C(c1cc(-c2ccccc2)nc2ccccc12)N1CCN(c2ccccn2)CC1
AC50 (CAAX prenyl protease 2 [1]): 4.89 µM (active)
AC50 (CAAX prenyl protease 2 [2]): 17 µM (active)

CC(=O)N1CCN(c2ccc(NC(=O)c3ccc([N+](=O)[O-])o3)cc2Cl)CC1
EC50 [3]: 9.29 µM (active)
IC50 (HEK293 [4]): 22 µM (inactive)
IC50 (HEK293 [5]): 55.3 µM (inactive)
AC50 (Paired box protein Pax-8): 5.83 µM (active)
AC50 [6]: 48.1 µM (active)
EC50 [7]: 11.1 µM (active)
IC50 (Jurkat [8]): 27.3 µM (inactive)
AC50 [9]: 11.2 µM (active)
EC50 [10]: 8.31 µM (active)
IC50 [11]: 49.8 µM (inactive)
AC50 [12]: 1.08 µM (active)

O=C(NCCN1CCC2(CC1)C(=O)Oc1ccccc12)c1cnc2ccccc2c1
IC50 (Phospholipase D1): 20 µM (inactive)
IC50 (Phospholipase D2): 20 µM (active)

O=C(NCCc1ccccc1)c1ccc2c(c1)OCCCO2
EC50 [13]: < 0.16 µM (active)
AC50 [14]: 14.2 µM (active)
IC50 [15]: > 39.8 µM (not active)
AC50 (Escherichia coli): 34.1 µM (active)
AC50 (Paired box protein Pax-8): 2.38 µM (active)
IC50 (Jurkat [16]): 0.64 µM (active)
AC50 [17]: 2 µM (active)
AC50 [18]: 58.7 µM (active)
AC50 [19]: 2.29 µM (active)
AC50 [6]: > 70 µM (inactive)
AC50 [20]: 3.96 µM (active)
AC50 [21]: 40.3 µM (active)
IC50 [22]: > 80 µM (inactive)
AC50 [23]: 84.9 µM (active)
AC50 [12]: 1.05 µM (active)

O=Cc1cc2ccccc2nc1SCc1ccc(Cl)c(Cl)c1
AC50 [24]: 2.82 µM (active)
EC50 (BJ [25]): < 0.104 µM (active)
IC50 [26]: > 80 µM (inactive)
EC50 (BJ [27]): 0.777 µM (active)
EC50 [7]: > 120 µM (not active)
EC50 (BJ [28]): 0.396 µM (inconclusive)
EC50 [29]: 0.567 µM (active)
EC50 [10]: > 120 µM (not active)
EC50 (BJ [30]): 0.279 µM (active)

COC(=O)c1ccc(/C=C(\C#N)c2ccccn2)cc1
AC50 (HeLa): 103 µM (active)
AC50 [31]: 2.61 µM (active)
